Measurements from the NIST ThermoML archive (doi:10.1021/je5010824).

Legend:
[1] = Liquid; for mass density: 298.15 K, 101.33 kPa, Vibrating tube method; for vapor or sublimation pressure: Ebulliometric method (Recirculating still)
[2] = refractive index (Na D-line) (dimensionless); conditions: 298.15 K; 101.33 kPa; Liquid; Standard Abbe refractometry

CC(O)CO (centres undefined) [1,2-propanediol]
Conditions | mass density [kg/m3] | refractive index
[1] | 1031.9 | –
[2] | – | 1.432

[1]
Conditions | vapor or sublimation pressure [kPa]
398.25 K | 10
398.26 K | 10
414.88 K | 20
433.22 K | 40
460.69 K | 101.3

CCC(O)CO (centres undefined) [1,2-butanediol]
Conditions | mass density [kg/m3] | refractive index
[1] | 998.78 | –
[2] | – | 1.4378

[1]
Conditions | vapor or sublimation pressure [kPa]
392.06 K | 5.62
397.24 K | 7.21
402.31 K | 8.86
405.41 K | 10
406.54 K | 10.62
412.23 K | 13.56
417.66 K | 16.89
422.15 K | 20
422.48 K | 20.34
427.21 K | 24.45
432.29 K | 29.56
437.41 K | 35.54
440.83 K | 40
442.77 K | 41.92
447.52 K | 50.54
452.13 K | 58.86
457.24 K | 69.36
462.57 K | 81.92
466.64 K | 92.78
469.71 K | 101.3

OCCO [1,2-ethanediol]
[1]
Conditions | vapor or sublimation pressure [kPa]
406.1 K | 10
423.29 K | 20
442.17 K | 40
470.4 K | 101.3

Conditions | refractive index
[2] | 1.431
